Data taken from paper PMC5908784, “Extracellular loops 2 and 3 of the calcitonin receptor selectively modify agonist binding and efficacy” (Biochemical Pharmacology, 2018).
Substitutions are numbered along the chain they refer to.

Legend:
hCTR I300A = target: T1, hCTR I300A (Homo sapiens, UniProt P30988, I300A); test: IP1 accumulation; format: cell-based; conditions: IP1 maximal response, mean ± S.E.M., SEM
T1 construct: c-Myc (N); expressed in transfected cells
T1 sequence (P30988 25-474 I300A): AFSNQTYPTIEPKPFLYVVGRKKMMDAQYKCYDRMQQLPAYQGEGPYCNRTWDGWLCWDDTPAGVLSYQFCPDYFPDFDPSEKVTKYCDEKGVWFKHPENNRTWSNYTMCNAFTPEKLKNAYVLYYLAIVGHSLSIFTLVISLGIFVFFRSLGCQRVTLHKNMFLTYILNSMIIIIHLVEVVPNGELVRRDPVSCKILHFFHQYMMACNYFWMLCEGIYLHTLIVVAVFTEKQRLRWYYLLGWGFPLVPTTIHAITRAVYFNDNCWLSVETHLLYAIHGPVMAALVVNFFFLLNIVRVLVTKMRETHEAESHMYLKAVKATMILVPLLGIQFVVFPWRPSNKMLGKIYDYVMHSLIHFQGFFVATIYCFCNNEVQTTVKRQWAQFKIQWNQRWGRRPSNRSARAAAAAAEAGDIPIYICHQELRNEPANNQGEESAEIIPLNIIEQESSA
Procedure, shortened: (§1)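 Ligand-induced IP1 (60 min, LiCl) measured by HTRF; normalized to 100 μM ATP response.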

hCTR C289A = target: T2, hCTR C289A (Homo sapiens, UniProt P30988, C289A); test: IP1 accumulation; format: cell-based; conditions: IP1 maximal response, mean ± S.E.M., SEM
T2 construct: c-Myc (N); expressed in transfected cells
T2 sequence (P30988 25-474 C289A): T1 sequence (P30988 25-474 I300A) with C265A, A276I
Procedure, shortened: as §1

| Compound | Emax (hCTR I300A) | Emax (hCTR C289A) |
| --- | --- | --- |
| CC[C@H](C)[C@H](NC(=O)[C@H](C)NC(=O)[C@@H](NC(=O)[C@H](CCC(N)=O)NC(=O)[C@@H]1CCCN1C(=O)[C@H](Cc1ccccc1)NC(=O)[C@@H](NC(=O)[C@H](Cc1c[nH]cn1)NC(=O)[C@H](Cc1ccccc1)NC(=O)[C@H](CCCCN)NC(=O)[C@H](CC(N)=O)NC(=O)[C@H](Cc1ccccc1)NC(=O)[C@H](CC(=O)O)NC(=O)[C@H](CCC(N)=O)NC(=O)[C@@H](NC(=O)[C@H](Cc1ccc(O)cc1)NC(=O)[C@@H](NC(=O)CNC(=O)[C@H](CC(C)C)NC(=O)[C@H](CCSC)NC(=O)[C@@H]1CSSC[C@H](N)C(=O)NCC(=O)N[C@@H](CC(N)=O)C(=O)N[C@@H](CC(C)C)C(=O)N[C@@H](CO)C(=O)N[C@@H]([C@@H](C)O)C(=O)N1)[C@@H](C)O)[C@@H](C)O)[C@@H](C)O)[C@@H](C)O)C(=O)NCC(=O)N[C@H](C(=O)NCC(=O)N[C@@H](C)C(=O)N1CCC[C@H]1C(N)=O)C(C)C [hCT] | 44 ± 4% | – |
| CC(C)C[C@H](NC(=O)[C@H](CCCCN)NC(=O)CNC(=O)[C@H](CC(C)C)NC(=O)[C@@H](NC(=O)[C@@H]1CSSC[C@H](N)C(=O)N[C@@H](CO)C(=O)N[C@@H](CC(N)=O)C(=O)N[C@@H](CC(C)C)C(=O)N[C@@H](CO)C(=O)N[C@@H]([C@@H](C)O)C(=O)N1)C(C)C)C(=O)N[C@@H](CO)C(=O)N[C@@H](CCC(N)=O)C(=O)N[C@@H](CCC(=O)O)C(=O)N[C@@H](CC(C)C)C(=O)N[C@@H](Cc1c[nH]cn1)C(=O)N[C@@H](CCCCN)C(=O)N[C@@H](CC(C)C)C(=O)N[C@@H](CCC(N)=O)C(=O)N[C@H](C(=O)N[C@@H](Cc1ccc(O)cc1)C(=O)N1CCC[C@H]1C(=O)N[C@@H](CCCNC(=N)N)C(=O)N[C@H](C(=O)N[C@@H](CC(N)=O)C(=O)N[C@H](C(=O)NCC(=O)N[C@@H](CO)C(=O)NCC(=O)N[C@H](C(=O)N1CCC[C@H]1C(N)=O)[C@@H](C)O)[C@@H](C)O)[C@@H](C)O)[C@@H](C)O [sCT] | – | 42 ± 4% |
